# Assay results reported in BindingDB's records for doi:10.1016/s0960-894x(02)00934-4 (Southern Research Institute, 2003).
# pKi: −log10 of the molar value.
# Assay: Antagonist activity on agonist stimulated [35S]GTP-gamma-S, binding in guinea pig caudate membranes (10 uM SNC-80 as the agonist ligand for delta-receptor)
row,SMILES,pKi
1,"NC(N)=Nc1cnc2c(c1)C[C@@]1(O)[C@H]3Cc4ccc(O)c5c4[C@@]1(CCN3CC1CC1)[C@H]2O5 [6-amino(imino)methylamino-19-cyclopropylmethyl-11-oxa-8,19-diazahexacyclo[10.9.1.01,10.02,18.04,9.016,22]docosa-4(9),5,7,12,14,16(22)-hexaene-2,13-diol; ditrifluoracetic acid]",8.19
2,"Oc1ccc2c3c1O[C@H]1c4ncc(-n5cccc5)cc4C[C@@]4(O)[C@@H](C2)N(CC2CC2)CC[C@]314 [19-cyclopropylmethyl-6-(1H-1-pyrrolyl)-11-oxa-8,19-diazahexacyclo[10.9.1.01,10.02,18.04,9.016,22]docosa-4(9),5,7,12,14,16(22)-hexaene-2,13-diol]",9.40
